pIC50: −log10 of the molar value. Converted amounts (≈) assume the structure as drawn.
Assays:
Aspergillus flavus = experiment: Antifungal activity against Aspergillus flavus ATCC 16870 after 24 hrs by two-fold serial dilution method; type: functional; conditions: ATCC 16870, 24 h
Aspergillus fumigatus = experiment: Antifungal activity against Aspergillus fumigatus GIMCC 3.19 after 24 hrs by two-fold serial dilution method; type: functional; conditions: GIMCC 3.19, 24 h
Cryptococcus neoformans = experiment: Antifungal activity against Cryptococcus neoformans ATCC 32719 after 24 hrs by two-fold serial dilution method; type: functional; conditions: ATCC 32719, 24 h
Staphylococcus aureus [1] = experiment: Antibacterial activity against Methicillin-resistant Staphylococcus aureus N 315 after 24 hrs by two-fold serial dilution method; type: functional; conditions: N 315, 24 h
Staphylococcus aureus [2] = experiment: Antibacterial activity against Staphylococcus aureus ATCC 25923 after 24 hrs by two-fold serial dilution method; type: functional; conditions: ATCC 25923, 24 h
Bacillus spizizenii = experiment: Antibacterial activity against Bacillus subtilis ATCC 6633 after 24 hrs by two-fold serial dilution method; type: functional; conditions: ATCC 6633, 24 h
Proteus vulgaris = experiment: Antibacterial activity against Proteus vulgaris ATCC 8427 after 24 hrs by two-fold serial dilution method; type: functional; conditions: ATCC 8427, 24 h
Pseudomonas aeruginosa = experiment: Antibacterial activity against Pseudomonas aeruginosa ATCC 9027 after 24 hrs by two-fold serial dilution method; type: functional; conditions: ATCC 9027, 24 h
Escherichia coli = experiment: Antibacterial activity against Escherichia coli JM 109 after 24 hrs by two-fold serial dilution method; type: functional; conditions: JM 109, 24 h
Candida tropicalis = experiment: Inhibition of Candida tropicalis ATCC 750 chitin synthase using UDP-GlcNAc as substrate at 300 ug/ml after 60 mins by microplate reader method
[3] = Inhibition of Candida tropicalis ATCC 750 chitin synthase using UDP-GlcNAc as substrate after 60 mins by microplate reader method
Candida albicans = experiment: Antifungal activity against Candida albicans CMCC 76615 after 24 hrs by two-fold serial dilution method; type: functional; conditions: CMCC 76615, 24 h
Fusarium oxysporum = experiment: Antifungal activity against Fusarium oxysporum ITCC 6246 after 48 hrs by micro-titer plate method; type: functional; conditions: ITCC 6246, 48 h

| Compound | MIC (Aspergillus flavus) [µg/mL] | MIC (Aspergillus fumigatus) [µg/mL] | MIC (Cryptococcus neoformans) [µg/mL] | MIC (Staphylococcus aureus [1]) [µg/mL] | MIC (Staphylococcus aureus [2]) [µg/mL] | MIC (Bacillus spizizenii) [µg/mL] | MIC (Proteus vulgaris) [µg/mL] | MIC (Pseudomonas aeruginosa) [µg/mL] | MIC (Escherichia coli) [µg/mL] | inhibition (Candida tropicalis) [%] | pIC50 [3] | MIC (Candida albicans) [µg/mL] | MIC (Fusarium oxysporum) [µg/mL] |
| --- | --- | --- | --- | --- | --- | --- | --- | --- | --- | --- | --- | --- | --- |
| COC(=O)C(C)NP(=O)(OCCN(C)c1cc(=O)oc2ccc(C(C)(C)C)cc12)Oc1ccccc1 (stereo not drawn) | 16 (≈ 31 µM) | 64 (≈ 124 µM) | 64 (≈ 124 µM) | 1 (≈ 1.94 µM) | 64 (≈ 124 µM) | 16 (≈ 31 µM) | 16 (≈ 31 µM) | 16 (≈ 31 µM) | 16 (≈ 31 µM) | 62 | 3.77 | 64 (≈ 124 µM) |  |
| COC(=O)C(C)NP(=O)(OCCN(C)c1cc(=O)oc2c(C)cccc12)Oc1ccccc1 (stereo not drawn) | 64 (≈ 135 µM) | 32 (≈ 67.4 µM) | 128 (≈ 270 µM) | 128 (≈ 270 µM) | 64 (≈ 135 µM) | 512 (≈ 1080 µM) | 128 (≈ 270 µM) | 256 (≈ 540 µM) | 128 (≈ 270 µM) | 64 | 3.66 | 64 (≈ 135 µM) |  |
| COC(=O)C(NP(=O)(OCCN(C)c1cc(=O)oc2c(C)cccc12)Oc1ccccc1)C(C)C (stereo not drawn) | 128 (≈ 255 µM) | 128 (≈ 255 µM) | 128 (≈ 255 µM) | 32 (≈ 63.7 µM) | 128 (≈ 255 µM) | 32 (≈ 63.7 µM) | 256 (≈ 509 µM) | 256 (≈ 509 µM) | 256 (≈ 509 µM) | 45 |  | 128 (≈ 255 µM) |  |
| COC(=O)C(Cc1ccccc1)NP(=O)(OCCN(C)c1cc(=O)oc2ccc(C)cc12)Oc1ccccc1 (stereo not drawn) | 64 (≈ 116 µM) | 128 (≈ 232 µM) | 64 (≈ 116 µM) | 128 (≈ 232 µM) | 64 (≈ 116 µM) | 64 (≈ 116 µM) | 16 (≈ 29.1 µM) | 256 (≈ 465 µM) | 64 (≈ 116 µM) | 43 |  | 64 (≈ 116 µM) |  |
| COC(=O)C(NP(=O)(OCCN(C)c1cc(=O)oc2ccccc12)Oc1ccccc1)C(C)C (stereo not drawn) | 16 (≈ 32.8 µM) | 64 (≈ 131 µM) | 64 (≈ 131 µM) | 256 (≈ 524 µM) | 256 (≈ 524 µM) | 128 (≈ 262 µM) | 512 (≈ 1050 µM) | 512 (≈ 1050 µM) | 512 (≈ 1050 µM) | 54 | 3.42 | 32 (≈ 65.5 µM) |  |
| COC(=O)C(C)NP(=O)(OCCN(C)c1cc(=O)oc2ccccc12)Oc1ccccc1 (stereo not drawn) | 64 (≈ 139 µM) | 32 (≈ 69.5 µM) | 8 (≈ 17.4 µM) | 512 (≈ 1110 µM) | 512 (≈ 1110 µM) | 512 (≈ 1110 µM) | 512 (≈ 1110 µM) | 512 (≈ 1110 µM) | 512 (≈ 1110 µM) | 77 | 3.82 | 32 (≈ 69.5 µM) |  |
| COC(=O)CNP(=O)(OCCN(C)c1cc(=O)oc2ccccc12)Oc1ccccc1 (stereo not drawn) | 128 (≈ 287 µM) | 128 (≈ 287 µM) | 64 (≈ 143 µM) | 256 (≈ 573 µM) | 256 (≈ 573 µM) | 512 (≈ 1150 µM) | 512 (≈ 1150 µM) | 256 (≈ 573 µM) | 128 (≈ 287 µM) | 49 | 3.19 | 64 (≈ 143 µM) |  |
| COC(=O)CNP(=O)(OCCN(C)c1cc(=O)oc2ccc(C(C)(C)C)cc12)Oc1ccccc1 (stereo not drawn) | 64 (≈ 127 µM) | 32 (≈ 63.7 µM) | 32 (≈ 63.7 µM) | 8 (≈ 15.9 µM) | 64 (≈ 127 µM) | 16 (≈ 31.8 µM) | 64 (≈ 127 µM) | 16 (≈ 31.8 µM) | 64 (≈ 127 µM) | 50 | 3.21 | 64 (≈ 127 µM) |  |
| COC(=O)C(Cc1ccccc1)NP(=O)(OCCN(C)c1cc(=O)oc2ccccc12)Oc1ccccc1 (stereo not drawn) | 8 (≈ 14.9 µM) | 128 (≈ 239 µM) | 64 (≈ 119 µM) | 128 (≈ 239 µM) | 64 (≈ 119 µM) | 128 (≈ 239 µM) | 16 (≈ 29.8 µM) | 64 (≈ 119 µM) | 64 (≈ 119 µM) | 59 | 3.60 | 64 (≈ 119 µM) |  |
| C=C1CC(CC/C(C)=C\COc2ccc3ccc(=O)oc3c2)OC1=O (stereo not drawn) |  |  |  |  |  |  |  |  |  |  |  |  | 19 (≈ 55.8 µM) |
| COC(=O)CNP(=O)(OCCN(C)c1cc(=O)oc2cc(C)ccc12)Oc1ccccc1 (stereo not drawn) | 64 (≈ 139 µM) | 32 (≈ 69.5 µM) | 16 (≈ 34.8 µM) | 256 (≈ 556 µM) | 256 (≈ 556 µM) | 512 (≈ 1110 µM) | 512 (≈ 1110 µM) | 512 (≈ 1110 µM) | 128 (≈ 278 µM) | 59 | 3.49 | 32 (≈ 69.5 µM) |  |
| COC(=O)CNP(=O)(OCCN(C)c1cc(=O)oc2ccc(C)cc12)Oc1ccccc1 (stereo not drawn) | 64 (≈ 139 µM) | 64 (≈ 139 µM) | 64 (≈ 139 µM) | 256 (≈ 556 µM) | 256 (≈ 556 µM) | 256 (≈ 556 µM) | 512 (≈ 1110 µM) | 128 (≈ 278 µM) | 512 (≈ 1110 µM) | 51 | 3.22 | 128 (≈ 278 µM) |  |
| COC(=O)C(C)NP(=O)(OCCN(C)c1cc(=O)oc2ccc(C)cc12)Oc1ccccc1 (stereo not drawn) | 128 (≈ 270 µM) | 64 (≈ 135 µM) | 32 (≈ 67.4 µM) | 256 (≈ 540 µM) | 256 (≈ 540 µM) | 256 (≈ 540 µM) | 512 (≈ 1080 µM) | 512 (≈ 1080 µM) | 16 (≈ 33.7 µM) | 61 | 3.59 | 64 (≈ 135 µM) |  |
